The source of these data is patent US6756381B2 (SuperGen, Inc., priority 2002, dated 2004).

One data set has as its system human tumor xenografts. To be noted: nude mice; cited from earlier work.
Data set [1] can be described thus: Moisture sorption/desorption (VTI SGA-100 moisture balance). The data set is classed as physicochemical. To be noted: for hygroscopicity (in words): 5 to 95% RH; for Weight % chg: 25 deg C. The source says: The samples were not dried prior to analysis.
A short description of data set [2]: Dehydration/desolvation under vacuum, XRPD compared. Type of data set: physicochemical.
Protocol: Dehydration/desolvation studies were conducted by placing a sample under continuous vacuum at room temperature for 14 days. An XRPD pattern was obtained on the remaining solid and compared to the starting material.
For data set [3] the following is noted: cited from earlier work.
Data set [4] is described as follows: Storage of Form B in a closed vial, XRPD pattern compared. Type of data set: physicochemical. As to conditions: 31 days, ambient conditions. The procedure:
X-ray powder diffraction analyses were carried out on a Shimadzu XRD-6000 X-ray powder diffractometer using Cu Kα radiation having a wavelength of 1.5406 Å. The instrument is equipped with a fine-focus X-ray tube. The tube power was set by setting potential difference at 40 kV, and current 40 mA. The divergence and scattering slits were set at 1° and the receiving slit was set at 0.15 mm. Diffracted radiation was detected by a NaI scintillation detector. A theta-two theta continuous scan at 3°/min (0.4 sec/0.02° step) from 2.5 to 40 °2 θ was performed. A silicon standard was analyzed each day to check the instrument alignment. Each sample was analyzed in a quartz sample holder. A variable temperature (VT-XRPD) experiment was performed on one form. The sample was prepared for analysis by pressing it into a variable temperature holder. A powder pattern was collected initially at 35° C. and again, after heating, at 200° C.

Where [5] appears, read: start, elapsed time 0.0 min, sample not dried.

For the compound `CC[C@@]1(O)C(=O)OCc2c1cc1n(c2=O)Cc2cc3c([N+](=O)[O-])cccc3nc2-1` [9-nitrocamptothecin, 9-nitro-20(S)-camptothecin], in the data set with human tumor xenografts, the “regression of human tumors established as xenografts” value is on record as “induced regression”.
On to `CC[C@@]1(O)C(=O)OCc2c1cc1n(c2=O)Cc2cc3c([N+](=O)[O-])cccc3nc2-1` [Form A, 9-nitrocamptothecin], for which the “hygroscopicity (in words)” value in data set [1] is on record as “not hygroscopic”. The Weight % chg is 0.0210% in data set [1] (sorption, about 35% RH) and 0.0000% in data set [1] (setting [5]).
In the case of `CC[C@@]1(O)C(=O)OCc2c1cc1n(c2=O)Cc2cc3c([N+](=O)[O-])cccc3nc2-1` [Form C, 9-nitrocamptothecin], the “result of attempt to desolvate under vacuum” value in data set [2] is on record as “becomes amorphous”.
Take `CC[C@@](O)(C(=O)[O-])c1cc2n(c(=O)c1CO)Cc1cc3ccccc3nc1-2.[Na+]` [Sodium camptothecin]: the unpredictable side effects result in data set [3] (administered intravenously) is “myelosuppression and hemorrhagic cystitis”. Moreover, in data set [3] (solubilized by sodium hydroxide in water, intravenous), the “activity in clinical trials” value is “antineoplastic activity”.
As to `CC[C@@]1(O)C(=O)OCc2c1cc1n(c2=O)Cc2cc3c([N+](=O)[O-])cccc3nc2-1` [Form B, 9-nitrocamptothecin], the “hygroscopicity (in words)” value in data set [1] was “relatively hygroscopic”. In addition, in data set [1] (setting [5]), the Weight % chg is reported as 0.0000%. In data set [4], the “stability of the crystalline polymorph on storage (XRPD pattern unchanged)” value is reported as “relatively stable”.
